Test results as given in patent US11814376B2, “Hepatitis b core protein modulators” (Assembly Biosciences, Inc., priority 2015, dated 2023).

Key:
[1] = test system: HBV viral load in AD38 cells; test: Viral load production in AD38 cells, quantitative PCR of the core sequence in supernatant; type: cell-based; conditions: Hepatitis B virus, 144 h, 10 μM compound, 6 days at 37° C., supernatant qPCR, relative to DMSO control; read-out: AD38 Viral Load (%) (VL with cmpd/VL in DMSO control) at 10 μM
AD38 cells = test: Viability of AD38 cells (Promega CellTiter-Glo); type: cell-based; conditions: 10 μM compound, 6 days, CellTiter-Glo luminescence normalized to DMSO control (100%)
Procedure, shortened: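 AD38 cells were seeded at 50,000/well on collagen-coated plates and treated with compound added as a 10× solution in 10% DMSO for 6 days at 37° C. Viability was measured by CellTiter-Glo luminescence in tetracycline-free medium with 2% FBS and 1% DMSO, and expressed as percent of DMSO control.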

SMILES: COc1ccc(-c2ncc(CNC(=O)c3ccc4c(c3)NC(=O)c3ccccc3O4)s2)cc1 [compound 1619]
- activity at 10 µM [1]: 1.3%
- AD38 Viability Normalized Result (cmpd/DMSO %) at 10 μM (AD38 cells): 95%

SMILES: O=C1CCCCN(c2ncc(CNC(=O)c3ccc4c(c3)NC(=O)c3ccccc3S4(=O)=O)s2)C1 [compound 1909, 11-oxo-N-((2-(3-oxoazepan-1-yl)thiazol-5-yl)methyl)-10, 11-dihydrodibenzo [b, f] [1, 4] thiazepine-8-carboxamide 5,5-dioxide]
- activity at 10 µM [1]: 1.3%
- AD38 Viability Normalized Result (cmpd/DMSO %) at 10 μM (AD38 cells): 95%

SMILES: O=C(NCc1cnc(-c2ccccc2)s1)c1ccc2c(c1)NC(=O)c1ccccc1O2 [compound 1562]
- activity at 10 µM [1]: 0.9%
- AD38 Viability Normalized Result (cmpd/DMSO %) at 10 μM (AD38 cells): 97%

SMILES: N#Cc1ccc(-c2ncc(CNC(=O)c3ccc4c(c3)NC(=O)c3cccc(F)c3S4(=O)=O)s2)cc1 [compound 1904]
- activity at 10 µM [1]: 0.5%
- AD38 Viability Normalized Result (cmpd/DMSO %) at 10 μM (AD38 cells): 89%

SMILES: C=CCN1c2ccc(C(=O)NCc3cnc(-c4ccc(C#N)cc4)s3)cc2NC(=O)c2ccccc21 [compound 1921]
- activity at 10 µM [1]: 1.2%
- AD38 Viability Normalized Result (cmpd/DMSO %) at 10 μM (AD38 cells): 101%

SMILES: O=C(NCc1cnc(-c2ccc(N3CCCC3=O)cc2)s1)c1ccc2c(c1)NC(=O)c1ccccc1O2 [compound 1864]
- activity at 10 µM [1]: 3%
- AD38 Viability Normalized Result (cmpd/DMSO %) at 10 μM (AD38 cells): 93%

SMILES: Cc1c(C(=O)NCc2cnc(C(F)(F)F)s2)ccc2c1NC(=O)c1ccccc1O2 [compound 1941]
- activity at 10 µM [1]: 5.2%
- AD38 Viability Normalized Result (cmpd/DMSO %) at 10 μM (AD38 cells): 84%

SMILES: CN(C)CCCOc1ccc(-c2ncc(CNC(=O)c3ccc4c(c3)NC(=O)c3ccccc3O4)s2)cc1 [compound 1698]
- activity at 10 µM [1]: 2.7%
- AD38 Viability Normalized Result (cmpd/DMSO %) at 10 μM (AD38 cells): 91%

SMILES: Nc1ncc(-c2ncc(CNC(=O)c3ccc4c(c3)NC(=O)c3ccccc3O4)s2)cn1 [compound 1710]
- activity at 10 µM [1]: 39.9%
- AD38 Viability Normalized Result (cmpd/DMSO %) at 10 μM (AD38 cells): 96%

SMILES: CC(C)N(C)CC(O)COc1ccc(-c2ncc(CNC(=O)c3ccc4c(c3)NC(=O)c3ccccc3S4(=O)=O)s2)cc1 (stereo not drawn) [compound 11087]
- activity at 10 µM [1]: 7.1%
- AD38 Viability Normalized Result (cmpd/DMSO %) at 10 μM (AD38 cells): 103%

SMILES: O=C(O)c1ccc(-c2ncc(CNC(=O)c3ccc4c(c3)NC(=O)c3ccccc3O4)s2)cc1 [compound 1612, 4-(5-((11-oxo-10, 11-dihydrodibenzo [b, f] [1, 4]oxazepine-8-carboxamido)methyl)thiazol-2-yl) benzoic acid]
- activity at 10 µM [1]: 6.9%
- AD38 Viability Normalized Result (cmpd/DMSO %) at 10 μM (AD38 cells): 105%

SMILES: Cl.NCCc1ccccc1-c1ncc(CNC(=O)c2ccc3c(c2)NC(=O)c2ccccc2S3(=O)=O)s1 [compound 1842, N-((2-(2-(2-aminoethyl)phenyl)thiazol-5-yl)methyl)-11-oxo-10, 11-dihydrodibenzo [b, f] [1, 4] thiazepine-8-carboxamide 5,5-dioxide hydrochloride]
- activity at 10 µM [1]: 46.5%
- AD38 Viability Normalized Result (cmpd/DMSO %) at 10 μM (AD38 cells): 109%

SMILES: CN(C)CC(O)COc1ccc(-c2ncc(CNC(=O)c3ccc4c(c3)NC(=O)c3ccccc3S4(=O)=O)s2)cc1 (stereo not drawn) [compound 11085]
- activity at 10 µM [1]: 3.4%
- AD38 Viability Normalized Result (cmpd/DMSO %) at 10 μM (AD38 cells): 88%

SMILES: CC(C)c1cnn(-c2ncc(CNC(=O)c3ccc4c(c3)NC(=O)c3ccccc3S4(=O)=O)s2)c1 [11117-A]
- activity at 10 µM [1]: 0.3%
- AD38 Viability Normalized Result (cmpd/DMSO %) at 10 μM (AD38 cells): 110%

SMILES: O=C(O)CNc1ncc(CNC(=O)c2ccc3c(c2)NC(=O)c2ccccc2O3)s1 [compound 1615, (5-((11-oxo-10, 11-dihydrodibenzo [b, f] [1, 4]oxazepine-8-carboxamido)methyl)thiazol-2-yl) glycine]
- activity at 10 µM [1]: 54.9%
- AD38 Viability Normalized Result (cmpd/DMSO %) at 10 μM (AD38 cells): 103%

SMILES: CN(C)CCCOc1ncc(CNC(=O)c2ccc3c(c2)NC(=O)c2ccccc2O3)s1 [compound 1691, N-((2-(3-(dimethylamino)propoxy)thiazol-5-yl)methyl)-11-oxo-10, 11-dihydrodibenzo [b, f] [1, 4] oxazepine-8-carboxamide]
- activity at 10 µM [1]: 77.1%
- AD38 Viability Normalized Result (cmpd/DMSO %) at 10 μM (AD38 cells): 89%

SMILES: O=C(NCc1cnc(C(=O)c2ccccc2)s1)c1ccc2c(c1)NC(=O)c1ccccc1S2(=O)=O [compound 1929]
- activity at 10 µM [1]: 1.2%
- AD38 Viability Normalized Result (cmpd/DMSO %) at 10 μM (AD38 cells): 93%

SMILES: Cl.NCc1ccc(-c2ncc(CNC(=O)c3ccc4c(c3)NC(=O)c3ccccc3S4(=O)=O)s2)cc1 [compound 1654, N-((2-(4-(aminomethyl)phenyl)thiazol-5-yl)methyl)-11-oxo-10, 11-dihydrodibenzo [b, f] [1, 4] thiazepine-8-carboxamide 5,5-dioxide hydrochloride]
- activity at 10 µM [1]: 0.5%
- AD38 Viability Normalized Result (cmpd/DMSO %) at 10 μM (AD38 cells): 94%

SMILES: CC1c2ccc(C(=O)NCc3cncs3)cc2NC(=O)c2ccccc21 (stereo not drawn) [compound 1546]
- activity at 10 µM [1]: 2.2%
- AD38 Viability Normalized Result (cmpd/DMSO %) at 10 μM (AD38 cells): 97%

SMILES: CN(C)c1ncc(-c2ncc(CNC(=O)c3ccc4c(c3)NC(=O)c3ccccc3O4)s2)cn1 [compound 1711]
- activity at 10 µM [1]: 6.5%
- AD38 Viability Normalized Result (cmpd/DMSO %) at 10 μM (AD38 cells): 96%

SMILES: COc1ccnc(-c2ncc(CNC(=O)c3ccc4c(c3)NC(=O)c3ccccc3S4(=O)=O)s2)c1 [1880-A, N-((2-(4-methoxypyridin-2-yl)thiazol-5-yl)methyl)-11-oxo-10, 11-dihydrodibenzo [b, f] [1, 4] thiazepine-8-carboxamide 5,5-dioxide]
- activity at 10 µM [1]: 0.7%
- AD38 Viability Normalized Result (cmpd/DMSO %) at 10 μM (AD38 cells): 124%

SMILES: CC(C)CN1c2ccc(C(=O)NCc3cnc(C(F)(F)F)s3)cc2NC(=O)c2ccccc21 [compound 11043]
- activity at 10 µM [1]: 12%
- AD38 Viability Normalized Result (cmpd/DMSO %) at 10 μM (AD38 cells): 100%

SMILES: CC(C)(O)Cc1ccccc1-c1ncc(CNC(=O)c2ccc3c(c2)NC(=O)c2ccccc2S3(=O)=O)s1 [compound 1840]
- activity at 10 µM [1]: 3.2%
- AD38 Viability Normalized Result (cmpd/DMSO %) at 10 μM (AD38 cells): 107%

SMILES: Cc1c(C(=O)NCc2cnc(-n3cc(F)cn3)s2)ccc2c1NC(=O)c1ccccc1S2(=O)=O [compound 11148]
- activity at 10 µM [1]: 0.3%
- AD38 Viability Normalized Result (cmpd/DMSO %) at 10 μM (AD38 cells): 98%

SMILES: CN(C)CCSc1ncc(CNC(=O)c2ccc3c(c2)NC(=O)c2ccccc2S3)s1 [compound 1604]
- activity at 10 µM [1]: 0.9%
- AD38 Viability Normalized Result (cmpd/DMSO %) at 10 μM (AD38 cells): 82%

SMILES: O=C(NCc1cnc(-c2ccc(SCCCN3CCOCC3)cc2)s1)c1ccc2c(c1)NC(=O)c1ccccc1S2(=O)=O [compound 11066, N-((2-(4-((3-morpholinopropyl)thio)phenyl)thiazol-5-yl)methyl)-11-oxo-10, 11-dihydrodibenzo [b, f] [1, 4] thiazepine-8-carboxamide 5,5-dioxide]
- activity at 10 µM [1]: 0.4%
- AD38 Viability Normalized Result (cmpd/DMSO %) at 10 μM (AD38 cells): 104%

SMILES: N#Cc1cccc(-c2ncc(CNC(=O)c3ccc4c(c3)NC(=O)c3ccccc3S4(=O)=O)s2)c1 [1677-A, N-((2-(3-cyanophenyl)thiazol-5-yl)methyl)-11-oxo-10, 11-dihydrodibenzo [b, f] [1, 4] thiazepine-8-carboxamide 5,5-dioxide]
- activity at 10 µM [1]: 2.3%
- AD38 Viability Normalized Result (cmpd/DMSO %) at 10 μM (AD38 cells): 103%

SMILES: CN(Cc1cnc(-c2ccc(O)cc2)s1)C(=O)c1ccc2c(c1)NC(=O)c1ccccc1S2(=O)=O [compound 1661]
- activity at 10 µM [1]: 45.2%
- AD38 Viability Normalized Result (cmpd/DMSO %) at 10 μM (AD38 cells): 90%

SMILES: O=C(NCc1cnc(CN2CCOCC2)s1)c1ccc2c(c1)NC(=O)c1ccccc1S2(=O)=O [compound 1927]
- activity at 10 µM [1]: 4.7%
- AD38 Viability Normalized Result (cmpd/DMSO %) at 10 μM (AD38 cells): 92%

SMILES: CN(C)CCC#Cc1ccc(-c2ncc(CNC(=O)c3ccc4c(c3)NC(=O)c3ccccc3S4(=O)=O)s2)cc1 [compound 11003, N-((2-(4-(4-(dimethylamino)but-1-yn-1-yl)phenyl)thiazol-5-yl)methyl)-11-oxo-10, 11-dihydrodibenzo [b, f] [1, 4] thiazepine-8-carboxamide 5,5-dioxide]
- activity at 10 µM [1]: 0.3%
- AD38 Viability Normalized Result (cmpd/DMSO %) at 10 μM (AD38 cells): 97%

SMILES: N#Cc1ccc(-c2ncc(CNC(=O)c3ccc4c(c3Cl)NC(=O)c3ccccc3S4(=O)=O)s2)c(F)c1 [compound 11083]
- activity at 10 µM [1]: 0.8%
- AD38 Viability Normalized Result (cmpd/DMSO %) at 10 μM (AD38 cells): 62%

SMILES: O=C(NCc1cnc(-c2ccc3[nH]ncc3c2)s1)c1ccc2c(c1)NC(=O)c1ccccc1O2 [compound 1737]
- activity at 10 µM [1]: 7.2%
- AD38 Viability Normalized Result (cmpd/DMSO %) at 10 μM (AD38 cells): 112%

SMILES: Cl.N=C(N)c1ccc(-c2ncc(CNC(=O)c3ccc4c(c3)NC(=O)c3ccccc3S4(=O)=O)s2)cc1 [compound 1653, N-((2-(4-carbamimidoylphenyl)thiazol-5-yl)methyl)-11-oxo-10, 11-dihydrodibenzo [b, f] [1, 4] thiazepine-8-carboxamide 5,5-dioxide hydrochloride]
- activity at 10 µM [1]: 65.4%
- AD38 Viability Normalized Result (cmpd/DMSO %) at 10 μM (AD38 cells): 108%

SMILES: O=C(NCc1cnc(N2CCC(O)CC2)s1)c1ccc2c(c1)NC(=O)c1ccccc1S2(=O)=O [compound 1859]
- activity at 10 µM [1]: 2.7%
- AD38 Viability Normalized Result (cmpd/DMSO %) at 10 μM (AD38 cells): 89%

SMILES: Cl.O=C(NCc1cnc(-c2ccc(N3CCNCC3)nc2)s1)c1ccc2c(c1)NC(=O)c1ccccc1S2(=O)=O [compound 11019, 11-oxo-N-((2-(6-(piperazin-1-yl)pyridin-3-yl)thiazol-5-yl)methyl)-10, 11-dihydrodibenzo [b, f] [1, 4] thiazepine-8-carboxamide 5,5-dioxide hydrochloride]
- activity at 10 µM [1]: 14.3%
- AD38 Viability Normalized Result (cmpd/DMSO %) at 10 μM (AD38 cells): 93%

SMILES: CN1CC[C@H](Oc2ccc(-c3ncc(CNC(=O)c4ccc5c(c4)NC(=O)c4ccccc4S5(=O)=O)s3)cc2)C1 [compound 11134, (S)—N-((2-(4-((1-methylpyrrolidin-3-yl)oxy)phenyl)thiazol-5-yl)methyl)-11-oxo-10, 11-dihydrodibenzo [b, f] [1, 4] thiazepine-8-carboxamide 5,5-dioxide]
- activity at 10 µM [1]: 1.4%
- AD38 Viability Normalized Result (cmpd/DMSO %) at 10 μM (AD38 cells): 90%
